# Test results published in ChEMBL document CHEMBL1129427, “Novel AMPA receptor antagonists: synthesis and structure-activity relationships of 1-hydroxy-7-(1H-imidazol-1-yl)-6-nitro-2,3(1H,4H)- quinoxalinedione and related compounds” (J Med Chem, 1996).
# Target: Glutamate receptor ionotropic, kainate
# Assay: Binding affinity towards Ionotropic glutamate receptor kainate was determined in rat cortical membrane using [3H]KA as radioligand
# Assay type: cell membranes
row,Compound,Ki
1,O=c1[nH]c2cc([N+](=O)[O-])c(-n3ccnc3)cc2n(O)c1=O,630 nM

# Target: Glutamate NMDA receptor
# Assay: Binding affinity towards NMDA receptor was determined in rat whole brain membrane using NMDA-sensitive [3H]Glu as radioligand
# Assay type: cell membranes
row,Compound,Ki
1,O=c1[nH]c2cc([N+](=O)[O-])c(-n3ccnc3)cc2n(O)c1=O,12000 nM

# Target: Glutamate receptor ionotropic, NMDA 1 (Rattus norvegicus, UniProt P35439)
# Assay: Binding affinity towards glycine binding site on NMDA receptor was determined in rat whole brain membrane using strychnine-insensitive [3H]Gly as radioligand
# Assay type: cell membranes
row,Compound,Ki
1,O=c1[nH]c2cc([N+](=O)[O-])c(-n3ccnc3)cc2n(O)c1=O,4200 nM
2,O=c1[nH]c2cc(-n3ccnc3)c([N+](=O)[O-])cc2[nH]c1=O [YM-90K],37000 nM

# Target: Glutamate receptor ionotropic, AMPA (Rattus norvegicus, UniProt P19490+P19491+P19492+P19493)
# Description: Binding affinity towards Ionotropic glutamate receptor AMPA was determined in rat whole brain membrane using [3H]AMPA as radioligand
row,Ki,Compound
1,140 nM,CCCn1c(=O)c(=O)[nH]c2cc([N+](=O)[O-])c(-n3ccnc3)cc21
2,230 nM,CC(C)CCn1c(=O)c(=O)[nH]c2cc([N+](=O)[O-])c(-n3ccnc3)cc21
3,8900 nM,CCCCCCCCCCn1c(=O)c(=O)[nH]c2cc([N+](=O)[O-])c(-n3ccnc3)cc21
4,4500 nM,CCCn1c(=O)c(=O)[nH]c2cc(-n3ccnc3)c([N+](=O)[O-])cc21
5,190 nM,CCn1c(=O)c(=O)[nH]c2cc([N+](=O)[O-])c(-n3ccnc3)cc21
6,330 nM,Cn1c(=O)c(=O)[nH]c2cc([N+](=O)[O-])c(-n3ccnc3)cc21
7,300 nM,CCOn1c(=O)c(=O)[nH]c2cc([N+](=O)[O-])c(-n3ccnc3)cc21
8,380 nM,COn1c(=O)c(=O)[nH]c2cc([N+](=O)[O-])c(-n3ccnc3)cc21
9,420 nM,O=c1[nH]c2cc([N+](=O)[O-])c(-n3ccnc3)cc2n(CCO)c1=O
10,840 nM,CN(C)CCn1c(=O)c(=O)[nH]c2cc([N+](=O)[O-])c(-n3ccnc3)cc21
11,50 nM,Cc1cn(-c2cc3c(cc2[N+](=O)[O-])[nH]c(=O)c(=O)n3O)cn1
12,440 nM,O=c1[nH]c2cc(-n3ccnc3)c([N+](=O)[O-])cc2n(O)c1=O

row,Compound,Ki
1,O=c1[nH]c2cc([N+](=O)[O-])c(-n3ccnc3)cc2n(C2CCCCC2)c1=O,110 nM
2,O=c1[nH]c2cc([N+](=O)[O-])c(-n3ccnc3)cc2n(C2CN3CCC2CC3)c1=O (configuration not stated),1000 nM
3,O=c1[nH]c2cc([N+](=O)[O-])c(-n3ccnc3)cc2n(CC2CCCCC2)c1=O,790 nM
4,O=c1[nH]c2cc([N+](=O)[O-])c(-n3ccnc3)cc2n(C2CCNC2)c1=O (configuration not stated),550 nM
5,O=c1[nH]c2cc([N+](=O)[O-])c(-n3ccnc3)cc2n(O)c1=O,21 nM
6,O=c1[nH]c2cc([N+](=O)[O-])c(-n3cncn3)cc2n(O)c1=O,180 nM
